The values below come from US20070037887A1, “Blockade of mtor to prevent a hormonal adaptive response” (University of Virginia Patent Foundation, priority 2003, published 2007).

In one experiment the test system is Shc. The experiment in a line: E2-induced Shc phosphorylation in MCF-7 cells. The experiment is classed as cell-based, human. Particulars: 10^−10 M E2 for 3 minutes. How it is done:
Because ERα, Shc and MAP kinase are all involved in E2 action in MCF-7 cells, upstream components responsible for Shc phosphorylation were determined by measuring the effects of PP2, ICI and PD98059 on E2-induced phosphorylation of Shc. In the presence of the inhibitors, MCF-7 cells were stimulated with vehicle or 10^−10 M E2 for 3 minutes and the status of Shc phosphorylation was examined. […] No effects of these inhibitors were apparent in the absence of E2 stimulation. […] Each of these inhibitors was capable of reducing the rate of cell proliferation in LTED cells.

Experiment [1] has as its system MCF-7 cells. The experiment in a line: Growth of MCF-7 cells (cell number). It is filed as cell-based, human. As to conditions: E2 10^−10 M, five-day treatment. How it is done:
FIG. 3 represents the effect of FTS on the growth of MCF-7, LTED, and MCF-10A cells. Sixty thousand cells were plated into each well of 6-well plates. Two days later, the cells were treated in triplicate for five days with FTS at indicated concentrations. The results (mean±S.E.) are expressed as percentage of the vehicle control.
FIG. 4 represents the effect of FTS on E2 stimulated growth of MCF-7 and LTED cells. Thirty thousand cells were plated into each well of 6-well plates. Two days later, the cells were re-fed with IMEM containing 5% DCC-FBS. After another two days, cells were treated in triplicate with estradiol (10^−10 M) plus various concentrations of FTS for five days. In LTED cells, fulvestrant (10^−9 M) was included in all wells to block the effect of residual estrogen in the culture. The results (mean±S.E.) are expressed as percentage of cell number from the wells containing E2.
The effect of FTS on growth of breast cancer cells was examined in two different cell lines: MCF-7 wild type cells which represent a model for untreated breast cancer and LTED cells as a model of cells adapting to endocrine treatment. Cells were grown in their culture media and treated with FTS for five days. […] The effect of FTS on E2-stimulated growth of MCF-7 and LTED cells was the examined. Five-day treatment of MCF-7 cells with E2 (10^−10 M) increased cell number by 8-fold compared with the vehicle control. Addition of FTS reduced cell number in a dose-dependent manner with about 50% inhibition at the concentration of 50 μM […]. […] The extent of inhibition of E2-stimulated cell growth by FTS was similar in these two cell lines.

For another experiment, the system named is MAP kinase. The experiment in a line: MAP kinase activation in LTED cells. The experiment is classed as cell-based, human. How it is done:
Upregulation of MAP kinase and PI-3-kinase could reflect either a constitutive activation of growth factor receptors, an increase in the endogenous secretion of growth factors, or other mechanisms. Inhibition of MAP kinase with a pure antiestrogen would rule out the possibility of constitutive activation of growth factor receptors or growth factor secretion. Accordingly, the pure anti-estrogen, faslodex (fulvestrant) was administered and the level of activation of MAP kinase in LTED cells was examined.
Estrogen deprivation might trigger activation of a non-genomic, estrogen regulated, MAP kinase pathway which utilizes Shc. […] The addition of E2 stimulated MAP kinase phosphorylation in LTED cells within minutes. The increased MAP kinase phosphorylation by E2 was time and dose-dependent being greatly stimulated at 15 min and remaining elevated for at least 30 min. Maximal stimulation of MAP kinase phosphorylation was at 10^−10 M of E2.

The test system of experiment [2] is MCF-7 cells. The experiment in a line: [3H] thymidine incorporation into DNA, MCF-7 cells. It is filed as cell-based, human. As to conditions: Estradiol 10^−10 M. How it is done:
(§1) FIGS. 5A & 5B represent the effect of FTS on DNA synthesis in MCF-7 (FIG. 5A) and LTED (FIG. 5B) cells. One hundred thousand cells were plated into each well of 24-well plates. Two days later, the cells were re-fed with IMEM containing 5% DCC-FBS. After another two days, cells were treated in quadruplicate with the compounds indicated for 18 hours. [^3H] thymidine (1 μCi/well) was added during the last 2 h of incubation. [^3H] thymidine incorporated into DNA was normalized by protein content.
(§2) The inhibitory effect of FTS on cell growth may be the result of inhibition of cellular proliferation, induction of apoptosis, or both. To determine the mechanism by which FTS inhibits cell growth, FTS's effect on DNA synthesis and apoptosis was investigated. […] Estradiol (10^−10 M) increased [^3H] thymidine incorporation by 2.6 fold compared to the control level in MCF-7 cells.
A general note: Incorporation of labelled thymidine or its analogues reports DNA synthesis.

Experiment [3] has as its system ERK1/2, Akt, p70S6K, PHAS-1 phosphorylation in LTED cells. Description: EGF induced activation of MAP kinase, PI3 kinase and mTOR in LTED cells (Western). The experiment is classed as cell-based, human. Particulars: pretreatment FTS 1 h, LY 294002 or rapamycin 3 h; EGF 1 μg/ml 1 h. The text has this:
FIG. 8 represents data showing the effect of FTS on EGF induced activation of MAP kinase, PI3 kinase, and mTOR in LTED cells. […] Cells were then harvested and cell lysate prepared. Phosphorylated and total kinases were detected by Western analysis using specific antibodies.
The effects of the specific growth factors, EFG and IGF-1 were also examined. Serum contains multiple growth factors that activate MAP kinase and PI3 kinase either by recruitment and activation of the common mediator Ras (such as EGF) or through a direct mechanism (such as IGF-1). To further explore the site of action of FTS, EGF-induced activation of MAPK and PI3 kinase was first examined. Specific inhibitors for PI3 kinase and mammalian target of rapamycin (mTOR) were included for comparison. […] One-hour treatment was chosen as the time point allowing most efficient comparisons among molecules.

The test system of experiment [4] is MCF-7 cells. The experiment in a line: Estradiol dose response of growth, wild type MCF-7 cells. The experiment is classed as cell-based, human. Particulars: TGF alpha 10 ng/ml. How it is done: As further evidence of the role of MAP kinase, PD 98059 was administered to LTED cells and its effect on level of sensitivity to estradiol was examined.
To investigate whether the MAP and P13 kinase pathways have a role in estradiol induced cell proliferation, the following experiments were conducted. […] Blockade of this effect was obtained with the MAPK inhibitor PD98059. Administration of TGF at a dose of 10 ng/ml caused a 2-log shift to the left in the ability of estradiol to stimulate the growth of wild-type MCF-7 cells. […] Dual inhibition of PI3K with LY40029 and MAPK with U0126 shifted the level of sensitivity to estradiol more dramatically, by more than 2 logs to the right. On the basis of these observations, it is believed that adaptive hypersensitivity involves the joint activation of the PI3K and MAPK pathways.

The next experiment has as its target T1, mTOR (Rattus norvegicus, UniProt P42346).
T1 construct: expressed in transfected cells; host or cells: 293T
The experiment in a line: Immune complex assay of mTOR activity after incubating 293T cells with compound. Particulars: 293T cells incubated with 200 μM. It is filed as cell-based. How it is done: (§3) FIGS. 12A & 12B represent data showing the effects of incubating cells with increasing concentrations of FTS and GTS on mTOR activity and mTOR association with raptor and mLST8. AU1-mTOR, HA-raptor, and HAmLST8 were overexpressed in 293T cells. The cells were then incubated for 1 h with increasing concentrations of FTS (●, ▴, ▪) or GTS (∘, Δ, □) before extracts were prepared. Immunoprecipitations were then conducted with anti-AU1 antibodies. mTOR kinase activity (●, ∘) was determined by measuring ^32P incorporation into [His^6]PHAS-I in immune complex kinases assays performed with [γ-^32P]ATP. The relative amounts of HA-raptor (▴, Δ) and HA-mLST8 (▪, □) that coimmunoprecipitated with AU1-mTOR were determined after immunoblotting with anti-HA antibodies. The results (mean values±S.E. from 3 experiments) are expressed as percentages of the mTOR activity (FIG. 12A) or coimmunoprecipitating proteins (FIG. 12B) from samples incubated without FTS or GTS, and have been corrected for the amounts of AU1-mTOR immunoprecipitated.
FIG. 12A presents results of immune complex kinases assays with AU1-mTOR from extracts of 293T cells that had been incubated with increasing concentrations of FTS.
Immune complex assay of mTOR activity—AU1-mTOR was immunoprecipitated by using anti-AU1 antibody bound to protein G-agarose beads as described previously (McMahon, et al., (2002) Mol. Cell. Biol. 22, 7428-7438). Endogenous mTOR was immunoprecipitated in the same manner, except that mTAb1 was used instead of anti-AU1 antibody. To measure kinase activity, exhaustively washed immune complexes were suspended in 20 μl of Buffer A (50 mM NaCl, 0.1 mM EGTA, 1 mM dithiothreitol (DTT), […], 10 mM Na-HEPES, and 50 mM β-glycerophosphate, pH 7.4.). The kinase reactions were initiated by adding 20 μl of Buffer A supplemented with 2 mM [γ-^32P]ATP, 20 mM MnCl2 and 40 μg/ml of [His^6]PHAS-I. In experiments in which the effects of wortmannin were investigated, DTT was omitted from the reactions, and [His^6]PHAS-I that had been reduced and alkylated with N-ethylmaleimide was used as substrate. Reactions were terminated after 10 min at 30° by adding SDS sample buffer. Samples were subjected to SDS-PAGE and the relative amounts of ^32P incorporated into [His^6]PHAS-I were determined.

In a further experiment the test system is mTOR-raptor complex. Description: Coimmunoprecipitation of raptor with mTOR from 293T cells incubated with compound. Particulars: 293T cells incubated with 200 μM. The experiment is classed as cell-based. How it is done:
FIG. 11A & 11B represent data showing FTS inhibits PHAS-I phosphorylation and promotes dissociation of the mTOR-raptor complex in 293T cells. 293T cells were transfected with pcDNA3AU1-mTOR, pcDNA33HARaptor, pcDNA33HA-mLST8, and pCMV-Tag3APHAS-I (FIG. 11A). After 18 h the cells were incubated for 1 h with increasing concentrations of FTS before extracts were prepared. A sample of each extract was subjected to SDS-PAGE and immunoblotted to detect PHAS-I or PThr^36/45. AU1-mTOR was also immunoprecipitated from each extract, and immune complexes were subjected to SDSPAGE and immunoblotted with mTAb2, to detect mTOR, and with anti-HA antibodies, to detect HA-mLST8 and HA-raptor. Nontransfected 293T cells were incubated with increasing concentrations of FTS for 1 h before extracts were prepared. mTOR was immunoprecipitated with mTAb1, and samples were subjected to SDS-PAGE.
as §3
To investigate further the inhibitory effects of FTS on mTOR signaling, the effect of the drug on the association of mTOR, raptor, and mLST8 was determined. AU1-mTOR and HA-tagged forms of raptor and mLST8 were overexpressed in 293T cells, which were then incubated with increasing concentrations of FTS before AU1-mTOR was immunoprecipitated with anti-AU1 antibodies. Immunoblots were prepared with anti-HA antibodies to assess the relative amounts of HA-raptor and HA-mLST8 that coimmunoprecipitated with AU 1-mTOR (FIG. 11A).
Results obtained with overexpressed proteins are not necessarily representative of responses of endogenous proteins. Therefore, experiments were conducted to investigate the effect FTS on the endogenous TORC1 in nontransfected cells. […]

The subject of the next experiment is LTED cells. Description: [3H] thymidine incorporation into DNA, LTED cells. As to conditions: inhibitors of the MAP kinase pathway. The experiment is classed as cell-based, human. How it is done:
as §1, §2

For `CC(C)(C)n1nc(-c2ccc(Cl)cc2)c2c(N)ncnc21` [PP2], the “E2-induced Shc phosphorylation” value in the experiment with Shc is on record as “effectively inhibited”.

As for `C[C@]12CC[C@@H]3c4ccc(O)cc4CC[C@H]3[C@@H]1CC[C@@H]2O` [estradiol, reference compound], in the experiment with MCF-7 cells [1], the “increase of cell number compared with the vehicle control” value was determined as 8 fold. In addition, the “concentration of maximal stimulation of MAP kinase phosphorylation” value in the experiment with MAP kinase is listed as 10^−10 M. The “increase of [3H] thymidine incorporation compared to control level” value in the experiment on MCF-7 cells [2] was 2.6 fold.

For `O=c1cc(N2CCOCC2)oc2c(-c3ccccc3)cccc12` [LY 294002, reference compound], in [3], the “EGF-induced ERK1/2 MAP kinase phosphorylation” value is reported as “did not inhibit”.

For the compound “TGF alpha: growth factor used to activate MAP kinase in wild type MCF-7 cells”, the results for the “shift to the left of estradiol dose response for growth” value with MCF-7 cells [4] and in the experiment with MCF-7 cells [4] (listed as TGF) were “two log shift to the left” and 2 log, respectively.

Regarding `O=C([O-])c1ccccc1O.[Na+]` [sodium salicylate, reference compound], the mTOR activity result at mTOR is “without effect”. The “association of mTOR and raptor” value in the experiment with mTOR-raptor complex was “without effect”.

Consider `O=c1c(-c2ccc(O)cc2)coc2cc(O)cc(O)c12` [genestein], for which, in the experiment on LTED cells, the “incorporation of tritiated thymidine into DNA” value is given as “block tritiated thymidine uptake”.

Take `N#CC(=C(/N)Sc1ccccc1N)/C(C#N)=C(\N)Sc1ccccc1N` [U 0126]: the “incorporation of tritiated thymidine into DNA” value in the experiment with LTED cells is recorded as “block the incorporation”.

In the case of `CC[C@H](C)C(=O)O[C@H]1CCC=C2C=C[C@H](C)[C@H](CC[C@@H]3C[C@@H](O)CC(=O)O3)[C@H]21` [mevastatin], in the experiment on LTED cells, the “incorporation of tritiated thymidine into DNA” value is on record as “block tritiated thymidine uptake”.

Regarding `CO[C@H]1C[C@@H]2CC[C@@H](C)[C@@](O)(O2)C(=O)C(=O)N2CCCC[C@H]2C(=O)O[C@H]([C@H](C)C[C@@H]2CC[C@@H](O)[C@H](OC)C2)CC(=O)[C@H](C)/C=C(\C)[C@@H](O)[C@@H](OC)C(=O)[C@H](C)C[C@H](C)/C=C/C=C/C=C/1C` [rapamycin, reference compound], the “EGF-induced ERK1/2 MAP kinase phosphorylation” value in [3] is recorded as “did not inhibit”.
